According to patent US11180462B2, “Microbiocidal oxadiazole derivatives” (SYNGENTA PARTICIPATIONS AG, priority 2015, dated 2021):

Assays:
[1] = tested on: Puccinia recondita f. Sp. Tritici; assay: Fungicidal activity against Puccinia recondita f. sp. tritici / wheat / leaf disc preventative (brown rust); type: in vivo; details: foliar, 200 ppm in the applied formulation, wheat leaf segments, preventative, compared to untreated control leaf disks, read-out: disease control
Outline: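 200 ppm spray on wheat cv. Kanzler leaf segments; spore inoculation +1 day; 19° C., 75% rh, 12 h/12 h light cycle; single rating of % control vs untreated at 7 to 9 days.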

[2] = tested on: Puccinia recondita f. Sp. Tritici; assay: Fungicidal activity against Puccinia recondita f. sp. tritici / wheat / leaf disc curative (brown rust); type: in vivo; details: foliar, 24 h, 200 ppm in the applied formulation, wheat leaf segments, curative (applied 1 day after inoculation), compared to untreated control leaf disks, read-out: disease control
Outline: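 Segments of wheat cv. Kanzler were laid on agar and inoculated with a spore suspension of the rust, then held in darkness at 19° C and 75% relative humidity. One day later the water-diluted formulated compound was applied, with incubation continued under a 12 h light/dark cycle.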

Phakopsora Pachyrhizi = assay: Fungicidal activity against Phakopsora pachyrhizi / soybean / leaf disc preventative (Asian soybean rust); type: in vivo; details: foliar, 200 ppm in the applied formulation, soybean leaf disks, compared to untreated control leaf disks, read-out: disease control
Outline: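 Scored 12 to 14 days post-application as percent control relative to untreated check discs, rust spores were sprayed under the disc one day after compound treatment. Incubation: 20°C, 75% rh, first 24–36 h in darkness, then 12 h daily light; discs kept on water agar.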

[3] = tested on: Glomerella lagenarium (Colletotrichum lagenarium); assay: Fungicidal activity against Glomerella lagenarium (Colletotrichum lagenarium) liquid culture / cucumber / preventative (anthracnose); type: cell-based; details: Colletotrichum orbiculare; 20 ppm in the applied formulation; liquid culture (PDB), growth inhibition measured photometrically after 3 to 4 days; compared to untreated control; read-out: disease control
Outline: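 Percent activity against the untreated check was derived from photometric growth measurements made 2 to 7 days after conidia in potato dextrose broth were combined with compound at 20 ppm. Cultures were kept dark at 24 °C and 96% humidity.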

CC(=O)N(Cc1ccc(-c2noc(C(F)(F)F)n2)cc1)C(C)C [Compound 1.687, N-isopropyl-N-[[4-[5-(trifluoromethyl)-1,2,4-oxadiazol-3-yl]phenyl]methyl]-acetamide]
≥ 80%: pest or weed control at 200 ppm [1] | pest or weed control at 200 ppm [2] | pest or weed control at 200 ppm (Phakopsora Pachyrhizi) | inhibition of growth at 20 ppm [3]

CC(C)N(Cc1ccc(-c2noc(C(F)(F)F)n2)cc1)C(=O)CC1CC1 [Compound 1.688, 2-cycloopropyl-N-isopropyl-N-[[4-[5-(trifluoromethyl)-1,2,4-oxadiazol-3-yl]phenyl]methyl]-acetamide]
≥ 80%: pest or weed control at 200 ppm [1] | pest or weed control at 200 ppm [2] | pest or weed control at 200 ppm (Phakopsora Pachyrhizi) | inhibition of growth at 20 ppm [3]

CC(C)C(=O)N(Cc1ccc(-c2noc(C(F)(F)F)n2)cc1)CC(F)(F)F [Compound 1.689, 2-methyl-N-(2,2,2-trifluoroethyl)-N-[[4-[5-(trifluoromethyl)-1,2,4-oxadiazol-3-yl]phenyl]methyl]-propanamide]
≥ 80%: pest or weed control at 200 ppm [1] | pest or weed control at 200 ppm [2] | pest or weed control at 200 ppm (Phakopsora Pachyrhizi) | inhibition of growth at 20 ppm [3]

O=C(C1CC1(F)F)N(Cc1ccc(-c2noc(C(F)(F)F)n2)cc1)CC(F)(F)F (stereo not shown) [Compound 1.690, 2,2-difluoro-N-(2,2,2-trifluoroethyl)-N-[[4-[5-(trifluoromethyl)-1,2,4-oxadiazol-3-yl]phenyl]methyl]-cyclopropane-carboxamide]
≥ 80%: pest or weed control at 200 ppm [1] | pest or weed control at 200 ppm [2] | pest or weed control at 200 ppm (Phakopsora Pachyrhizi) | inhibition of growth at 20 ppm [3]

O=C(C1CCOC1)N(Cc1ccc(-c2noc(C(F)(F)F)n2)cc1)CC(F)(F)F (stereo not shown) [Compound 1.692, N-(2.2.2-trifluoroethyl)-N-[[4-[5-(trifluoromethyl)-1,2,4-oxadiazol-3-yl]phenyl]methyl]-tetrahydrofuran-3-carboxamide]
≥ 80%: pest or weed control at 200 ppm [1] | pest or weed control at 200 ppm [2] | pest or weed control at 200 ppm (Phakopsora Pachyrhizi) | inhibition of growth at 20 ppm [3]

CC1(C(=O)N(Cc2ccc(-c3noc(C(F)(F)F)n3)cc2)CC(F)(F)F)CC1 [Compound 1.696, 1-methyl-N-(2,2,2-trifluoroethyl)-N-[[4-[5-(trifluoromethyl)-1,2,4-oxadiazol-3-yl]phenyl]methyl]-cyclopropane-carboxamide]
≥ 80%: pest or weed control at 200 ppm [1] | pest or weed control at 200 ppm [2] | pest or weed control at 200 ppm (Phakopsora Pachyrhizi) | inhibition of growth at 20 ppm [3]

CC1(C(=O)N(Cc2ccc(-c3noc(C(F)(F)F)n3)cc2)CC(F)(F)F)COC1 [Compound 1.698, 3-methyl-N-(2,2,2-trifluoroethyl)-N-[[4-[5-(trifluoromethyl)-1,2,4-oxadiazol-3-yl]phenyl]methyl]-oxetane-3-carboxamide]
≥ 80%: pest or weed control at 200 ppm [1] | pest or weed control at 200 ppm [2] | pest or weed control at 200 ppm (Phakopsora Pachyrhizi) | inhibition of growth at 20 ppm [3]

N#CCC(=O)N(Cc1ccc(-c2noc(C(F)(F)F)n2)cc1)CC(F)(F)F [Compound 1.701, 2-cyano-N-(2,2,2-trifluoroethyl)-N-[[4-[5-(trifluoromethyl)-1,2,4-oxadiazol-3-yl]phenyl]methyl]-acetamide]
≥ 80%: pest or weed control at 200 ppm [1] | pest or weed control at 200 ppm [2] | pest or weed control at 200 ppm (Phakopsora Pachyrhizi) | inhibition of growth at 20 ppm [3]

N#CC1(C(=O)N(Cc2ccc(-c3noc(C(F)(F)F)n3)cc2)CC(F)(F)F)CC1 [Compound 1.702, 1-cyano-N-(2,2,2-trrfluoroethyl)-N-[[4-[5-(trifluoromethyl)-1,2,4-oxadiazol-3-yl]phenyl]methyl]-cyclopropane-carboxamide]
≥ 80%: pest or weed control at 200 ppm [1] | pest or weed control at 200 ppm [2] | pest or weed control at 200 ppm (Phakopsora Pachyrhizi) | inhibition of growth at 20 ppm [3]

COC(C)C(=O)N(Cc1ccc(-c2noc(C(F)(F)F)n2)cc1)CC(F)(F)F (stereo not shown) [Compound 1.703, 2-methoxy-N-(2,2,2-trifluoroethyl)-N-[[4-[5-(trifluoromethyl)-1,2,4-oxadiazol-3-yl]phenyl]methyl]-propanamide]
≥ 80%: pest or weed control at 200 ppm [1] | pest or weed control at 200 ppm [2] | pest or weed control at 200 ppm (Phakopsora Pachyrhizi) | inhibition of growth at 20 ppm [3]

CC(=O)N(Cc1ccc(-c2noc(C(F)(F)F)n2)cc1)CC(F)(F)F [Compound 1.705, N-(2,2,2-trifluoroethyl)-N-[[4-[5-(trifluoromethyl)-1,2,4-oxadiazol-3-yl]phenyl]methyl]-acetamide]
≥ 80%: pest or weed control at 200 ppm [1] | pest or weed control at 200 ppm [2] | pest or weed control at 200 ppm (Phakopsora Pachyrhizi) | inhibition of growth at 20 ppm [3]

CC(C)C(=O)N(CCO)Cc1ccc(-c2noc(C(F)(F)F)n2)cc1 [Compound 1.707, N-(2-hydroxyethyl)-2-methyl-N-[[4-[5-(trifluoromethyl)-1,2,4-oxadiazol-3-yl]phenyl]methyl]-propanamide]
≥ 80%: pest or weed control at 200 ppm [1] | pest or weed control at 200 ppm [2] | pest or weed control at 200 ppm (Phakopsora Pachyrhizi) | inhibition of growth at 20 ppm [3]

O=C(C1CCC1)N(CCO)Cc1ccc(-c2noc(C(F)(F)F)n2)cc1 [Compound 1.714, N-(2-hydroxyethyl)-N-[[4-[5-(trifluoromethyl)-1,2,4-oxadiazol-3-yl]phenyl]methyl]-cyclobutane-carboxamide]
≥ 80%: pest or weed control at 200 ppm [1] | pest or weed control at 200 ppm [2] | pest or weed control at 200 ppm (Phakopsora Pachyrhizi) | inhibition of growth at 20 ppm [3]

CC1CC1C(=O)N(CCO)Cc1ccc(-c2noc(C(F)(F)F)n2)cc1 (stereo not shown) [Compound 1.717, N-(2-hydroxyethyl)-2-methyl-N-[[4-[5-(trifluoromethyl)-1,2,4-oxadiazol-3-yl]phenyl]methyl]-cyclopropane-carboxamide]
≥ 80%: pest or weed control at 200 ppm [1] | pest or weed control at 200 ppm [2] | pest or weed control at 200 ppm (Phakopsora Pachyrhizi) | inhibition of growth at 20 ppm [3]

CC1(C(=O)N(CCO)Cc2ccc(-c3noc(C(F)(F)F)n3)cc2)CC1 [Compound 1.718, N-(2-hydroxyethyl)-1-methyl-N-[[4-[5-(trifiuoromethyl)-1,2,4-oxadiazol-3-yl]phenyl]methyl]-cyctopropane-carboxamide]
≥ 80%: pest or weed control at 200 ppm [1] | pest or weed control at 200 ppm [2] | pest or weed control at 200 ppm (Phakopsora Pachyrhizi) | inhibition of growth at 20 ppm [3]

CCC(COC)C(=O)N(CCO)Cc1ccc(-c2noc(C(F)(F)F)n2)cc1 (stereo not shown) [Compound 1.723, N-(2-hydroxyethyl)-2-(methoxymethyl)-N-[[4-[5-(trifluoromethyl)-1,2,4-oxadiazol-3-yl]phenyl]methyl]-butanamide]
≥ 80%: pest or weed control at 200 ppm [1] | pest or weed control at 200 ppm [2] | pest or weed control at 200 ppm (Phakopsora Pachyrhizi) | inhibition of growth at 20 ppm [3]

COCCCC(=O)N(CCO)Cc1ccc(-c2noc(C(F)(F)F)n2)cc1 [Compound 1.724, N-(2-hydroxyethyl)-4-methoxy-N-[[4-[5-(trifluoromethyl)-1,2,4-oxadiazol-3-yl]phenyl]methyl]-butanamide]
≥ 80%: pest or weed control at 200 ppm [1] | pest or weed control at 200 ppm [2] | pest or weed control at 200 ppm (Phakopsora Pachyrhizi) | inhibition of growth at 20 ppm [3]

COCCCC(=O)OCCN(Cc1ccc(-c2noc(C(F)(F)F)n2)cc1)C(=O)CCCOC [Compound 1.725, 2-[4-methoxybutanoyl-[[4-[5-(trifluoromethyl)-1,2,4-oxadiazol-3-yl]phenyl]methyl]-amino]ethyl 4-methoxybutanoate]
≥ 80%: pest or weed control at 200 ppm [1] | pest or weed control at 200 ppm [2] | pest or weed control at 200 ppm (Phakopsora Pachyrhizi) | inhibition of growth at 20 ppm [3]

O=C(C1CCCO1)N(CCO)Cc1ccc(-c2noc(C(F)(F)F)n2)cc1 (stereo not shown) [Compound 1.726, N-(2-hydroxyethyl)-N-[[4-[5-(trifluoromethyl)-1,2,4-oxadiazol-3-yl]phenyl]methyl]-tetrahydrofuran-2-carboxamido]
≥ 80%: pest or weed control at 200 ppm [1] | pest or weed control at 200 ppm [2] | pest or weed control at 200 ppm (Phakopsora Pachyrhizi) | inhibition of growth at 20 ppm [3]

O=C(OCCN(Cc1ccc(-c2noc(C(F)(F)F)n2)cc1)C(=O)C1CCCO1)C1CCCO1 (stereo not shown) [Compound 1.727, 2-[tetrahydrofuran-2-carbonyl-[[4-[5-(trifluoromethyl)-1,2,4-oxadiazol-3-yl]phenyl]methyl]-amino]ethyl tetrahydrofuran-2-carboxylate]
≥ 80%: pest or weed control at 200 ppm [1] | pest or weed control at 200 ppm [2] | pest or weed control at 200 ppm (Phakopsora Pachyrhizi) | inhibition of growth at 20 ppm [3]

CC(C)C(=O)N(Cc1ccc(-c2noc(C(F)(F)F)n2)cc1)C1COC1 [Compound 1.738, 2-methyl-N-(oxetan-3-yl)-N-[[4-[5-(trifiuoromethyl)-1,2,4-oxadiazol-3-yl]phenyl]methyl]-propanamide]
≥ 80%: pest or weed control at 200 ppm [1] | pest or weed control at 200 ppm [2] | pest or weed control at 200 ppm (Phakopsora Pachyrhizi) | inhibition of growth at 20 ppm [3]

O=C(C1CC1(F)F)N(Cc1ccc(-c2noc(C(F)(F)F)n2)cc1)C1COC1 (stereo not shown) [Compound 1.739, 2,2-difluoro-N-(oxetan-3-yl)-N-[[4-[5-(trifluoromethyl)-1,2,4-oxadiazol-3-yl]phenyl]methyl]-cyclopropane-carboxamide]
≥ 80%: pest or weed control at 200 ppm [1] | pest or weed control at 200 ppm [2] | pest or weed control at 200 ppm (Phakopsora Pachyrhizi) | inhibition of growth at 20 ppm [3]
